What follows are compounds tested against Serine hydrolase RBBP9 (Homo sapiens) (UniProt O75884) (assay: RBBP9 hydrolase inhibition, IC50 by ABPP – biochemical, gel-based ABPP, late-stage follow-up (AID 2254)). Conditions: fluorophosphonate probe labeling of RBBP9.
Chain of Serine hydrolase RBBP9 (Homo sapiens) (O75884 whole entry, looked up): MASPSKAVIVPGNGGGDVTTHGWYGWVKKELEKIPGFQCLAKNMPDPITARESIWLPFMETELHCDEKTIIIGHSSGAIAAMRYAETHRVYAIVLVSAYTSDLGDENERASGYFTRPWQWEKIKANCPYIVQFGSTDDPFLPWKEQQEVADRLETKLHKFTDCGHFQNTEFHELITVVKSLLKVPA
`C/C(=N\OC(=O)C1CCCCC1)c1nccs1` gave an IC50 of 0.635 µM.
`C/C(=N\OC(=O)c1ccc(Cl)cc1)c1nccs1` was tested, and the IC50 was 1.9 µM.
In the case of `C/C(=N\OC(=O)c1ccc(F)cc1)c1nccs1`, the IC50 is reported as 5.7 µM.
Compound `COc1ccc(C(=O)O/N=C(\C)c2nccs2)cc1` has an IC50 of 9.1 µM.

Reference: PubChem BioAssay AID2254 (The Scripps Research Institute Molecular Screening Center, 2010)
